Assay results: patent US8835134B2, “Cycloastragenol monoglucoside, preparation, pharmaceutical composition and application thereof” (Tianjin Institute of Pharmaceutical Research, priority 2007, dated 2014)

Assay: Solubility
Type: physicochemical

CC(C)(O)[C@@H]1CC[C@](C)([C@H]2[C@@H](O)C[C@@]3(C)C4C[C@H](OC5OC(CO)C(O)C(O)C5O)C5C(C)(C)[C@@H](O)CC[C@@]56C[C@@]46CC[C@]23C)O1 (stereo partly drawn) [CMG, Cycloastragenol-6-O-β-D-glucoside]
solubility: 40-50 mg/100 ml

CC(C)(O)[C@@H]1CC[C@](C)([C@H]2[C@@H](O)C[C@@]3(C)[C@@H]4C[C@H](O[C@@H]5O[C@H](CO)[C@@H](O)[C@H](O)[C@H]5O)[C@H]5C(C)(C)[C@@H](O[C@@H]6OC[C@@H](O)[C@H](O)[C@H]6O)CC[C@@]56C[C@@]46CC[C@]23C)O1 [astragaloside IV, reference compound]
solubility: 2-4 mg/100 ml
